The subject of experiment [1] is Leptosphaeria nodorum (LEPTNO). Description: Glume Blotch of Wheat, whole plant 24 Hour Protectant (T2). The note with it: Parastagonospora nodorum; wheat (cultivar Yuma), sprayed at 100 ppm, inoculated after 24 hours; read-out: T2 LEPTNO in vivo 1 Day Protectant, control of fungal infection.
Experiment [2] relates to Phytophthora infestans (PHYTIN). Description: whole plant or invertebrate. Particulars: in Solanum lycopersicum, 24 h, read-out: T3 PHYTIN in vivo 1 Day Protectant, control of fungal infection.
Experiment [3] concerns Puccinia recondita (PUCCRT). Description: Brown Rust of Wheat, whole plant 24 Hour Protectant (T5). Particulars: wheat (cultivar Yuma), sprayed at 100 ppm, inoculated after 24 hours, read-out: T5 PUCCRT in vivo 1 Day Protectant, control of fungal infection.
The test system of experiment [4] is Septoria tritici (SEPTTR). Description: Leaf Blotch of Wheat, whole plant 24 Hour Protectant (T6). The note with it: Zymoseptoria tritici; wheat (cultivar Monon), sprayed at 100 ppm, inoculated after 24 hours; read-out: T6 SEPTTR in vivo 1 Day Protectant, control of fungal infection.
For experiment [5], the system named is Stagonospora nodorum (Leptosphaeria nodorum, LEPTNO). Description: microbe, parasite or virus in culture. The experiment is classed as cell-based. The note with it: Parastagonospora nodorum, read-out: T7 LEPTNO in vitro Growth Inhibition.
In experiment [6] the test system is Phytophthora infestans (PHYTIN). Description: microbe, parasite or virus in culture. The note with it: in Secale cereale, read-out: T8 PHYTIN in vitro Growth Inhibition. Type of experiment: cell-based.
Experiment [7] has as its system Magnaporthe grisea (Pyricularia oryzae, PYRIOR). Description: microbe, parasite or virus in culture. Type of experiment: cell-based. The note with it: read-out: T9 PYRIOR in vitro Growth Inhibition.
The subject of experiment [8] is Rhizoctonia solani (RHIZSO). Briefly: microbe, parasite or virus in culture. Particulars: read-out: T10 RHIZSO in vitro Growth Inhibition. The experiment is classed as cell-based.
For experiment [9], the system named is Mycosphaerella graminicola (Septoria tritici, SEPTTR). Briefly: microbe, parasite or virus in culture. Type of experiment: cell-based. Particulars: Zymoseptoria tritici, read-out: T11 SEPTTR in vitro Growth Inhibition.
For experiment [10], the system named is Ustilago maydis (USTIMA). Description: microbe, parasite or virus in culture. The experiment is classed as cell-based. Particulars: Mycosarcoma maydis, read-out: T12 USTIMA in vitro Growth Inhibition.
Experiment [11] relates to Erysiphe graminis (ERYSGT). Briefly: Powdery Mildew of Wheat, whole plant 24 Hour Protectant (T1). The note with it: Blumeria graminis, in Triticum aestivum, read-out: T1 ERYSGT in vivo 1 Day Protectant, control of fungal infection.
Procedure: Compound formulation was accomplished by dissolving technical materials in acetone, with serial dilutions then made in acetone to obtain desired concentrations. Final treatment volumes were obtained by adding 9 volumes 0.01% Triton X-100.
Powdery Mildew of Wheat (Erysiphe graminis—ERYSGT) (24 Hour Protectant): Wheat (cultivar Monon) was grown in a soilless peat-based potting mixture (“Metromix”) and mineral soil (50/50 mix) until the seedlings were 10-20 cm tall. These plants were then sprayed to run-off with the test compound at a rate of 100 ppm. After 24 hours the test plants were inoculated by dusting with conidia from powdery mildew infected wheat plants. The plants were then transferred to the greenhouse until disease developed on the untreated control plants.

13 molecules from US6861390B2, “Derivatives of UK-2A” (priority 2001, dated 2005) can be followed below.

Structures are written as SMILES. Bounds are passed on as bounds.

As to `COCC(C)OCOc1c(OC)ccnc1C(=O)N[C@H]1COC(=O)[C@H](Cc2ccccc2)[C@@H](OC(=O)C(C)C)[C@H](C)OC1=O` (some centres unmarked) [Compound 12], the pest or weed control at 100 ppm in [1] was 75 to 100%; in experiment [2], less than 25%; in experiment [3], 75 to 100%; in [4] it was 75 to 100%; in [11], 25 to 74%. For the same molecule, the inhibition (in general, the relative decrease from the control value, in per cent) at 25 ppm in experiment [5] was more than 80%; in experiment [6] it was less than 80%; in experiment [7] it was more than 80%; in [8] it was more than 80%; in experiment [9] it was more than 80%; in experiment [10], more than 80%.

Consider `COc1ccnc(C(=O)N[C@H]2COC(=O)[C@H](Cc3ccccc3)[C@@H](OC(=O)C(C)C)[C@H](C)OC2=O)c1OCOCCOC(C)=O` [Compound 17], for which the pest or weed control at 100 ppm in experiment [1] was 75 to 100%; in experiment [2], less than 25%; in [3], 75 to 100%; in experiment [4], 75 to 100%; in experiment [11], less than 25%. Also, the inhibition at 25 ppm in [5] was more than 80%; in experiment [6], less than 80%; in experiment [7] it was less than 80%; in experiment [8], more than 80%; in experiment [9] it was more than 80%; in experiment [10], less than 80%.

With `CCC(=O)OCOc1c(OC)ccnc1C(=O)N[C@H]1COC(=O)[C@H](Cc2ccccc2)[C@@H](OC(=O)C(C)C)[C@H](C)OC1=O` [Compound 21], the pest or weed control at 100 ppm is 75 to 100% in [1]; less than 25% in experiment [2]; 75 to 100% in experiment [3]; 75 to 100% in experiment [4]; 25 to 74% in experiment [11]. For the same molecule, the inhibition at 25 ppm in experiment [5] was more than 80%; in experiment [6], less than 80%; in experiment [7], more than 80%; in experiment [8] it was less than 80%; in experiment [9] it was more than 80%; in [10] it was less than 80%.

As for `COCC(=O)OCOc1c(OC)ccnc1C(=O)N[C@H]1COC(=O)[C@H](Cc2ccccc2)[C@@H](OC(=O)C(C)C)[C@H](C)OC1=O` [Compound 30], the pest or weed control at 100 ppm in experiment [1] is 75 to 100%; in experiment [2], less than 25%; in [3] it was 75 to 100%; in experiment [4], 75 to 100%; in experiment [11] it was 75 to 100%. The inhibition at 25 ppm is more than 80% in experiment [5]; less than 80% in experiment [6]; more than 80% in [7]; more than 80% in experiment [8]; less than 80% in experiment [9]; more than 80% in experiment [10].

For the molecule `COC(=O)CCC(=O)OCOc1c(OC)ccnc1C(=O)N[C@H]1COC(=O)[C@H](Cc2ccccc2)[C@@H](OC(=O)C(C)C)[C@H](C)OC1=O` [Compound 32], the pest or weed control at 100 ppm in [1] was 75 to 100%; in experiment [2], less than 25%; in experiment [3], 75 to 100%; in experiment [4], 75 to 100%; in [11], 25 to 74%. Also, the inhibition at 25 ppm in [5] is more than 80%; in experiment [6], less than 80%; in experiment [7], more than 80%; in experiment [8] it was less than 80%; in experiment [9], less than 80%; in experiment [10], less than 80%.

As to `COc1ccnc(C(=O)N[C@H]2COC(=O)[C@H](Cc3ccccc3)[C@@H](OC(=O)C(C)C)[C@H](C)OC2=O)c1OCOC(=O)C1CCCO1` (some centres unmarked) [Compound 34], the pest or weed control at 100 ppm in [1] was 75 to 100%; in experiment [2], less than 25%; in [3], 75 to 100%; in [4], 75 to 100%; in [11], 25 to 74%. Besides, the inhibition at 25 ppm is more than 80% in experiment [5]; less than 80% in experiment [6]; less than 80% in experiment [7]; less than 80% in experiment [8]; less than 80% in [9]; less than 80% in [10].

On to `CCCOCC(=O)OCOc1c(OC)ccnc1C(=O)N[C@H]1COC(=O)[C@H](Cc2ccccc2)[C@@H](OC(=O)C(C)C)[C@H](C)OC1=O` [Compound 35], for which the pest or weed control at 100 ppm in experiment [1] is 75 to 100%; in experiment [2], less than 25%; in experiment [3] it was 75 to 100%; in experiment [4] it was 75 to 100%; in [11], 25 to 74%. Also, the inhibition at 25 ppm was more than 80% in experiment [5]; less than 80% in experiment [6]; more than 80% in experiment [7]; more than 80% in experiment [8]; more than 80% in [9]; less than 80% in experiment [10].

As for `COc1ccnc(C(=O)N[C@H]2COC(=O)[C@H](Cc3ccccc3)[C@@H](OC(=O)C(C)C)[C@H](C)OC2=O)c1OCOC(=O)COC(C)C` [Compound 36], the pest or weed control at 100 ppm in experiment [1] is 75 to 100%; in [2], less than 25%; in experiment [3] it was 75 to 100%; in [4], 75 to 100%; in [11] it was less than 25%. Besides, the inhibition at 25 ppm is more than 80% in experiment [5]; less than 80% in experiment [6]; more than 80% in experiment [7]; less than 80% in experiment [8]; more than 80% in experiment [9]; less than 80% in experiment [10].

Regarding `CCCCOCC(=O)OCOc1c(OC)ccnc1C(=O)N[C@H]1COC(=O)[C@H](Cc2ccccc2)[C@@H](OC(=O)C(C)C)[C@H](C)OC1=O` [Compound 37], the pest or weed control at 100 ppm was 75 to 100% in experiment [1]; less than 25% in [2]; 75 to 100% in experiment [3]; 75 to 100% in experiment [4]; 25 to 74% in experiment [11]. For the same molecule, the inhibition at 25 ppm was more than 80% in experiment [5]; less than 80% in experiment [6]; more than 80% in experiment [7]; less than 80% in experiment [8]; more than 80% in [9]; more than 80% in [10].

Consider `COc1ccnc(C(=O)N[C@H]2COC(=O)[C@H](Cc3ccccc3)[C@@H](OC(=O)C(C)C)[C@H](C)OC2=O)c1OCOC(=O)COCC(C)C` [Compound 38], for which the pest or weed control at 100 ppm in [1] was 75 to 100%; in experiment [2] it was less than 25%; in experiment [3], 75 to 100%; in experiment [4], 75 to 100%; in experiment [11], 25 to 74%. Also, the inhibition at 25 ppm in [5] was more than 80%; in experiment [6], less than 80%; in [7] it was more than 80%; in experiment [8], less than 80%; in [9] it was more than 80%; in experiment [10], less than 80%.

Turning to `CCC(C)OCC(=O)OCOc1c(OC)ccnc1C(=O)N[C@H]1COC(=O)[C@H](Cc2ccccc2)[C@@H](OC(=O)C(C)C)[C@H](C)OC1=O` (some centres unmarked) [Compound 39], the pest or weed control at 100 ppm in [1] was 75 to 100%; in experiment [2], less than 25%; in experiment [3], 75 to 100%; in [4] it was 75 to 100%; in [11], 25 to 74%. The inhibition at 25 ppm in experiment [5] was more than 80%; in experiment [6] it was less than 80%; in experiment [7], more than 80%; in [8], less than 80%; in experiment [9], more than 80%; in [10], less than 80%.

In the case of `COCCOCC(=O)OCOc1c(OC)ccnc1C(=O)N[C@H]1COC(=O)[C@H](Cc2ccccc2)[C@@H](OC(=O)C(C)C)[C@H](C)OC1=O` [Compound 40], the pest or weed control at 100 ppm in experiment [1] was 75 to 100%; in experiment [2], less than 25%; in experiment [3], 75 to 100%; in experiment [4], 75 to 100%; in [11], 25 to 74%. Also, the inhibition at 25 ppm in [5] was more than 80%; in experiment [6] it was less than 80%; in experiment [7], more than 80%; in experiment [8], more than 80%; in experiment [9], more than 80%; in [10], more than 80%.

`COc1ccnc(C(=O)N[C@H]2COC(=O)[C@H](Cc3ccccc3)[C@@H](OC(=O)C(C)C)[C@H](C)OC2=O)c1OCOC(=O)COC1CCCC1` [Compound 41]: the pest or weed control at 100 ppm was 75 to 100% in experiment [1]; less than 25% in [2]; 75 to 100% in experiment [3]; 75 to 100% in [4]; 25 to 74% in [11]. The inhibition at 25 ppm was more than 80% in experiment [5]; less than 80% in experiment [6]; more than 80% in [7]; less than 80% in experiment [8]; more than 80% in experiment [9]; more than 80% in [10].
